# Values of other authors in US6660286B1, “Emulsion vehicle for poorly soluble drugs” (Sonus Pharmaceuticals, Inc., priority 1997, dated 2003).
# Like-named read-outs stand apart in the source and are kept apart here.
smiles,measurement,setting,value
CC(=O)O[C@H]1C(=O)[C@@]2(C)[C@H]([C@H](OC(=O)c3ccccc3)[C@]3(O)C[C@H](OC(=O)[C@H](O)[C@@H](NC(=O)c4ccccc4)c4ccccc4)C(C)=C1C3(C)C)[C@]1(OC(C)=O)CO[C@@H]1C[C@@H]2O [paclitaxel],solubility of paclitaxel,30% PVP in water,≤ 300 µg/mL
same,solubility of paclitaxel,35% PEG 400 in water,30 µg/mL
same,solubility of paclitaxel,admixtures of PEG 400 and water containing 50-100% PEG 400,200 to 175000 µg/mL
